In one assay the test system is apple trees. In words: Field trial in apple trees under heat, light and water stress (sunburn, fruit size, yield). The format is in vivo. As to conditions: apples. The method, then:
Field trials were conducted in commercial fields and orchards in Chile during the 2011-12 and 2012-13 growing seasons. The results were evaluated by measuring specific fruit parameters affected by abiotic stress including fruit diameter, fruit number, and amount of damage from heat or sunburn. The plants evaluated were apples and tomatoes. The plants in the trials received a conventional application of pesticides, under normal application conditions. The heat and light stress were considered important from the beginning of fruit development. High temperatures ranged between 30-35° C. ambient temperature measured by conventional methods in the shade from December to harvest.
Foliage and fruit were evaluated before and after treatments at regular intervals for signs of phytotoxicity. […] Furthermore, no signs of uncontrolled disease incidence was detected.
SUNCROPS, SUNCROPS PLUS, SCREEN DUO, and ECLIPSE are commercial treatments which are used in the management of abiotic stress. Kaolins and calcium carbonates reduce stress by reflecting the ultraviolet, visible and infrared rays, reducing the impact of excessive heat and light in photosynthesis and other essential plant cellular processes. The dicarboxylic acids, such as the azalaic acid in SUNCROPS PLUS, physiologically act by interacting on lipo-oxygenation processes and production of reactive oxygen species. (Greenberg et al. “The lipid whisker model of the structure of oxidized cell membranes.” J. Biol. Chem. 283, 2385-96, 2008)
The apple trees received six applications of each formulation at the dosages indicated in the “Dosage” column of Table 1. Tomato plants received biweekly treatments from fruit formation to fruit harvest (a total of 6 applications).
The different stages of fruit development correspond to (1) cell division (2) pit hardening (stone fruits only) (3) cell expansion and (4) fruit ripening. The start of the tests was done during the cell division phase. This phase corresponds to the period with increased susceptibility to damage from high temperatures, and can be correlated with increase in fruits having reduced size and decrease in the number of fruits per plant as a consequence of the abiotic stress due to high temperatures.
Early season heat, light and/or water stress can prevent cell division that occurs during phase (1) of the development of apple fruits.
Testing with apples was conducted in Rancagua, Sixth Region; Chile. The tree fruit load was standardized at a value of about 220 fruits per tree; ±3%, thus eliminating the variability generated by different loads of fruit on the trees. To assess damage from sunburn related to heat and water stress, 100% of the apples were harvested from the tree in each test unit and were classified according to the following scheme shown in Table 2.
Table 2. Classification scheme based on visual evaluation of the fruit • 0 No visible presence of sunburn • 1 Presence of slight yellowing of the skin (<7% of the surface of the fruit); exportable commercial fruit. • 2 Presence of strong yellowing of the skin (>7% of the surface of the fruit); exportable commercial fruit. • 3 Presence of moderate sunburn skin, no commercial fruit, suitable only for juice or related industry. • 4 Presence of significant sunburn skin, no harvestable fruit unmarketable.
The variables measured were: fruit diameter (mm), percentage of sunburn (number of fruits belonging to grades 1 or 2), size of the fruit (measured as weight in grams). The total fruit yield of the tree and the commercial yield (amount of commercial grade fruits, grades 1 or 2) was also measured.

The subject of a further assay is tomato plants. In words: Field trial in tomato plants under heat, light and water stress (sunburn, yield, soluble solids). As to conditions: 6 applications. It counts as in vivo.

Experimental findings from patent US20160037772A1, “INCREASING ABIOTIC STRESS TOLERANCE IN PLANTS” (priority 2014, published 2016) are described below.

SMILES strings stand for the structures.

Experimental for tomato plants: The study was conducted on tomatoes in a commercial growing field in Botalcura, Talca, Chile. […]
For each two meters plot, plants were harvested during six test runs. The fruit were first evaluated visually: fruits with red color as adequate for industrial processing, fruits with green color as inadequate and inappropriate for industrial processing and fruits damaged by the sun as disposable. […]

As for `O=CCCCCCCCC(=O)O` [ONA, 9-Oxononanoic acid], the Fruit diameter with apple trees (Rancagua, Chile, six applications at Table 1 dosage, about 220 fruits per tree) stood at 40.63 mm. Also, the “Effectiveness in protection of fruit compared with commercial treatments” value in the assay on apple trees (cell division stage) was “more effective than commercial treatments”. The Yield commercial with apple trees (commercial grade fruits (grades 1 or 2), six applications) came out at 49.7 kg/tree. This compound showed a Size with apple trees (fruit weight, six applications) of 146 g/apple. Also, the Yield total in the assay with apple trees (six applications) was 53.9 kg/tree. The “Percent fruit of grades 1 or 2” value in the assay on apple trees (visual sunburn grading scheme of Table 2, six applications) amounted to 88.25%. The compound further yielded a Soluble solids with tomato plants of 6.4 °Brix.
